Patent publication US20250003952A1, “SENOLYTIC DRUG SCREENING METHOD AND SENOLYTIC DRUG” (KYOTO UNIVERSITY, priority 2021, published 2025)

Columns and labels:
PGAM-Chk1 binding [1] = target: T1, PGAM-Chk1 binding (Homo sapiens, UniProt O14757+P18669); assay: PGAM-Chk1 binding by anti-Chk1 immunoprecipitation and anti-PGAM Western blotting in Ras-induced senescent IMR90 cells; assay type: cell-based; conditions: 20 μM or 40 μM for 48 hours, then MG132 6 hours
T1 construct: endogenous in cells; host or cells: IMR90 human primary fibroblasts made senescent by retroviral oncogenic Ras
T1 sequence (P18669 2-254 limits assumed): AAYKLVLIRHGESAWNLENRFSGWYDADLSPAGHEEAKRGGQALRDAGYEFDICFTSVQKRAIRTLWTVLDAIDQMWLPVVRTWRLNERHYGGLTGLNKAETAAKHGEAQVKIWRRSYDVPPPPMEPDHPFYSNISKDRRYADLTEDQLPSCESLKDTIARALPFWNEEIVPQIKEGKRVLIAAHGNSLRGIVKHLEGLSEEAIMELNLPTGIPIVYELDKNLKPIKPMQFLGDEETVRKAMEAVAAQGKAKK
T1 sequence (O14757 1-476): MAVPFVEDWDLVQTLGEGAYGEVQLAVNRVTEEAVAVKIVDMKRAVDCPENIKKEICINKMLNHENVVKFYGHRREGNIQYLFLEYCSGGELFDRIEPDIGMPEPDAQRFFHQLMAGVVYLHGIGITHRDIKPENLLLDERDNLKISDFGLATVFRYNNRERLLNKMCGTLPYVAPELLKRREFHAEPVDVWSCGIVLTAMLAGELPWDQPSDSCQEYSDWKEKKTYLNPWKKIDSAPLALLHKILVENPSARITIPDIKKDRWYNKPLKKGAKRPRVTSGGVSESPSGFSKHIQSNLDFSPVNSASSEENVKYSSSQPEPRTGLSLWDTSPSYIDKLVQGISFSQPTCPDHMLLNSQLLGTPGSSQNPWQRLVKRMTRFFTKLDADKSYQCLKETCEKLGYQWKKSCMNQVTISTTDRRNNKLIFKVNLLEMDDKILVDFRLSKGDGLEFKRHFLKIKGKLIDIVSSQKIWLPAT
Procedure: Human primary fibroblasts, IMR90 cells, were obtained from the JCRB Cell Bank. An oncogenic Ras mutation was retrovirally introduced into young cells (within 1 month of continuous culture) of the IMR90 cells to induce cellular senescence. […] After that, these cells were treated with MG132 for 6 hours, and cell lysates were prepared. The obtained cell lysates were immunoprecipitated with an anti-Chk1 antibody. The resulting immunoprecipitate was used for Western blotting with an anti-PGAM antibody to evaluate PGAM-Chk1 binding.
Next, in the same manner as above, IMR90 cells were used to prepare stress-induced senescent cells by introducing an oncogenic mutated Ras gene. The senescent cells were transfected with an RSK1 siRNA (SEQ ID NO: 7) or a control to knock down RSK1. The resulting cells were collected, and proteins were extracted. The resulting protein extract was immunoprecipitated with an anti-Chk1 antibody. The resulting immunoprecipitate was used for Western blotting with an anti-PGAM antibody to evaluate PGAM-Chk1 binding.

PGAM-Chk1 binding [2] = target: T2, PGAM-Chk1 binding (Homo sapiens, UniProt O14757+P18669); assay: Nano-Bit PGAM-Chk1 binding in young and etoposide-induced senescent IMR90 cells; assay type: cell-based; conditions: etoposide-induced senescent IMR90 cells; 20 μM or 40 μM for 48 hours
T2 construct: expressed in transfected cells
Procedure: In addition, PGAM and Chk1 kinase genes tagged with Nano-Bit tags were introduced into IMR90 cells to prepare a cell line capable of stable expression Young cells (within 1 month of continuous culture) of the IMR90 cells were treated with 100 uM etoposide for 48 hours to induce cellular senescence.
T2 sequence (P18669 whole entry, one chain of several): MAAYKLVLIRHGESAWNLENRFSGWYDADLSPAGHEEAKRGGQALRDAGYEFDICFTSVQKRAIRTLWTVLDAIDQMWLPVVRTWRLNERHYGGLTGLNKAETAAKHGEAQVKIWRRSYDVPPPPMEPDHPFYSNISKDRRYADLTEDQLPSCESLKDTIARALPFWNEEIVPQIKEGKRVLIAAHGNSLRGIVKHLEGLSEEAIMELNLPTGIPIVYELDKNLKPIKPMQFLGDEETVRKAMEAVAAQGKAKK

glycolytic metabolism = assay: Glycolytic metabolism (glucose consumption, lactate production) in etoposide-induced senescent IMR90 cells; assay type: cell-based, human; conditions: 20 μM or 40 μM for 48 hours
Procedure: Next, young cells (within 1 month of continuous culture) of the IMR90 cells were treated with 100 μM etoposide for 48 hours to acquire senescent cells. […] After the nutlin treatment, the medium was collected, and glucose consumption was evaluated and lactate production was measured. The lactate level is calculated as a value (μmol/mg/h) obtained by measuring the amount of lactate secreted into the medium per hour (μmol/h) and correcting the same by the total cell protein (mg) and is expressed as a value relative to the actual value on day 0. The glucose consumption is calculated as a value (μmol/mg/h) obtained by measuring the amount of glucose decreased from the medium per hour (μmol/h) and correcting the same by the total cell protein (mg) and is expressed as a value relative to the actual value on day 0. Glucose and lactate were measured by using a Glucose assay kit (BioVision) (upper diagram in FIG. 8) and a Lactate assay kit (BioVision) (lower diagram in FIG. 8), respectively.

p53 = p53 activation (Western blot of p53 and p21) in young IMR90 cells; assay type: cell-based, human; conditions: 20 μM for 48 hours
From the text: After the treatment, proteins were extracted from the cells to carry out Western blotted.

caspase-3 = assay: Apoptosis by Western blotting of fragmented caspase-3 in young and senescent IMR90 cells; assay type: cell-based, human; conditions: different concentrations for 72 hours
From the text: Ras gene with oncogenic mutation was introduced into young cells (within 1 month of continuous culture) of IMR90 cells by retroviral infection to acquire stress senescent cells.

HIF-2α = HIF-2α protein (Western blot) and mRNA expression in IMR90 cells; assay type: cell-based, human
From the text: As a result, it was observed that the HIF-2α protein decreased in the nutlin 3b-treated group and the BI-D1870-treated group (upper diagram and lower diagram in FIG. 22).
An oncogenic Ras was introduced into young cells (within 1 month of continuous culture) of IMR90 cells to induce senescent cells (OIS). […] It is known that ubiquitination is induced by phosphorylation in the vicinity of a ubiquitination site (Hagai et al., 2012). The consensus sequences (K/R-K/R-x-x-S/T) for phosphorylation by Chk1 located at the N-terminus of HIF-2α were conserved, and these were named Motif1 (including Ser12 residues) and Motif2 (including Ser19 residues) (FIG. 40, SEQ ID NOs: 77 to 81).

senescent cells = assay: Transcriptome / microarray / mRNA analysis of nutlin 3b-treated senescent cells; assay type: cell-based, human
Procedure: The latter information consists of 12,655 ChIP datasets from 903 antigens (transcription factors and epigenetic regulators).
A microarray dataset on nutlin 3b-treated senescent cells was analyzed for 202 genes (GO:0042981) classified as regulation of the apoptotic process.
In the Fox family, FoxO protein is deeply involved in the senescence process.

COc1ccc(C2=N[C@H](c3ccc(Cl)cc3)[C@H](c3ccc(Cl)cc3)N2C(=O)N2CCNC(=O)C2)c(OC(C)C)c1 [nutlin 3b]
PGAM-Chk1 binding (interaction) (PGAM-Chk1 binding [1]): inhibit PGAM-Chk1 interaction to the same extent
potentiation of PGAM-Chk1 binding (intracellular luminescence signals of Nano-Bit) (PGAM-Chk1 binding [2]): suppressed by the nutlin 3b treatment in a dose-dependent manner
glucose consumption (glycolytic metabolism): suppressed in a dose-dependent manner
lactate production (glycolytic metabolism): suppressed in a dose-dependent manner
protein level of p21 (p53): almost unchanged
protein level of p53 (p53): almost unchanged
caspase-3 fragmentation (caspase-3; Ras-induced senescent IMR90 cells): dose-dependent fragmentation of caspase 3
caspase-3 fragmentation (caspase-3; young IMR90 cells): did not cause caspase-3 fragmentation
HIF-2α protein expression (HIF-2α; senescent (OIS) IMR90 cells): suppressed
influence on HIF-2α mRNA (HIF-2α; senescent (OIS) IMR90 cells): relatively small
HIF-2α protein (HIF-2α; young and senescent cells, different concentrations for 96 hours): decreased
expression of FOXM1, FOXF1, FOXC1, FOXL1, FOXL2, FOXD1, FOXB2, FOXI2, and FOXN1 (senescent cells; nutlin 3b treatment): downregulated
expression of FOXO1, FOXP1, FOXH1, FOXF2, FOXO4, FOXO3, FOXJ3, FOXQ1, FOXK2, FOXN3, FOXO6, FOXK1, FOXP4, FOXN2, and FOXJ2 (senescent cells; nutlin 3b treatment): upregulated
expression of FOXO1 and FOXP1 (senescent cells; nutlin 3b treatment): remarkably upregulated
Survivin protein (senescent cells; nutlin 3b-treated senescent cells): downregulated
downregulation of Survivin/BIRC5 (senescent cells; nutlin 3b-treated senescent cells, microarray): about 30 fold
FoxM1 mRNA among FOX transcription family members (senescent cells; senescent cells): most dramatically downregulated
mRNAs for FoxM1 transcription targets (CCNB1, B2, D1, PLK1, ASPM, CEP55) (senescent cells; senescent cells): significantly affected
